{"source": "patent US9988379B2", "about": "“GPR40 receptor agonist, methods of preparing the same, and pharmaceutical compositions containing the same as an active agent” (LG CHEM, LTD., priority 2012, dated 2018)"}
{"biological_target": "T1, human GPR40 (Homo sapiens, UniProt O14842)", "T1 construct": "expressed in transfected cells; host or cells: CHO-K1", "T1 sequence (O14842 whole entry)": "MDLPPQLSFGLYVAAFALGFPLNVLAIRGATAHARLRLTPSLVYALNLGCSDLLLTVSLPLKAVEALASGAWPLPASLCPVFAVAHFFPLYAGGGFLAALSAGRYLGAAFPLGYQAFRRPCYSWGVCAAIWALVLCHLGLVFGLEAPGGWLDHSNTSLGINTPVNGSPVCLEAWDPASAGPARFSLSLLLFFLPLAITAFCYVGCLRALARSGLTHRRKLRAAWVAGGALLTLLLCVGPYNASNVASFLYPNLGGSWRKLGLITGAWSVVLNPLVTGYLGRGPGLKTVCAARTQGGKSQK", "assay": "Induction of Ca2+ (calcium flux assay) using human GPR40 expression cell line", "assay_type": "cell-based", "conditions": "read-out: EC0.5", "in_short": "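CHO-K1 cells stably transfected with human GPR40, plated 24 h, loaded 1 h at 37° C with Calcium 5 dye in HBSS/HEPES pH 7.4. Intracellular calcium change after compound addition read on FlexStation; concentration–response of relative activity used to derive EC0.5.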", "units": {"EC50": "nM"}}
{"smiles": "CC#C[C@@H](CC(=O)O)c1ccc(OCc2ccc3ccn(Cc4cccc(COC)c4)c3c2C)cc1", "note": "[Example 30, (S)-3-{4-[1-(3-methoxymethyl-benzyl)-7-methyl-1H-indol-6-ylmethoxy]-phenyl}-hex-4-ynoic acid]", "EC50": 40}
{"smiles": "CC(C)Cn1ncc2cc(COc3ccc4c(c3)OCCC4CC(=O)O)ccc21", "note": "(stereo not drawn) [Example 133, [7-(1-isobutyl-1H-indazol-5-ylmethoxy)-chroman-4-yl]-acetic acid]", "EC50": 400}
{"smiles": "CC#C[C@@H](CC(=O)O)c1ccc(OCc2ccc3c(CN4CCCC(F)(F)C4)nn(CC(C)C)c3c2C)cc1", "note": "[Example 227, (S)-3-{4-[3-(3,3-difluoro-piperidin-1-ylmethyl)-1-isobutyl-7-methyl-1H-indazol-6-ylmethoxy]-phenyl}-hex-4-ynoic acid]", "EC50": 5}
{"smiles": "CC#C[C@@H](CC(=O)O)c1ccc(OCc2ccc3cnn(Cc4cnccn4)c3c2)cc1", "note": "[Example 70, (S)-3-[4-(1-pyrazin-2-ylmethyl-1H-indazol-6-ylmethoxy]-phenyl}-hex-4-ynoic acid]", "EC50": "50 to 500"}
{"smiles": "O=C(O)CCc1ccc(OCc2ccc3ccn(Cc4ccccc4)c3c2Cl)cc1", "note": "[Example 18, 3-[4-(1-benzyl-7-chloro-1H-indol-6-ylmethoxy)-phenyl]-propanoic acid]", "EC50": 90}
{"smiles": "O=C(O)CCc1ccc(NCc2ccc3ccn(Cc4ccccc4)c3c2)cc1", "note": "[Example 2, 3-{4-[(1-benzyl-1H-indol-6-ylmethyl)-amino]-phenyl}-propanoic acid]", "EC50": 30}
{"smiles": "CC(C)n1cc2ccc(COc3ccc([C@H](CC(=O)O)c4ccon4)cc3)cc2n1", "note": "[Example 99, (S)-3-[4-(2-isopropyl-2H-indazol-6-ylmethoxy)-phenyl]-3-isoxazol-3-yl-propanoic acid]", "EC50": 1300}
{"smiles": "CC#C[C@@H](CC(=O)O)c1ccc(OCc2ccc3ccn(Cc4cnccn4)c3c2C)cc1", "note": "[Example 60, (S)-3-[4-(7-methyl-1-pyrazin-2-ylmethyl-1H-indol-6-ylmethoxy)-phenyl]-hex-4-ynoic acid]", "EC50": "1 to 50"}
{"smiles": "O=C(O)CC1CCc2cc(OCc3ccc4c(cnn4Cc4ccccc4)c3)ccc21", "note": "(stereo not drawn) [Example 118, [5-(1-benzyl-1H-indazol-5-ylmethoxy)-indan-1-yl]-acetic acid]", "EC50": 200}
{"smiles": "O=C(O)C[C@@H](c1ccc(OCc2ccc3cnn(CC4CC4)c3c2)cc1)c1ccon1", "note": "[Example 97, (S)-3-[4-(1-cyclopropylmethyl-1H-indazol-6-ylmethoxy)-phenyl]-3-isoxazol-3-yl-propanoic acid]", "EC50": 50}
{"smiles": "O=C(O)C[C@@H](c1ccc(OCc2ccc3cnn(CC4CCCC4)c3c2)cc1)c1ccon1", "note": "[Example 103, (S)-3-[4-(1-cyclopentylmethyl-1H-indazol-6-ylmethoxy)-phenyl]-3-isoxazol-3-yl-propanoic acid]", "EC50": 10}
{"smiles": "CC#C[C@@H](CC(=O)O)c1ccc(OCc2cc(C)c3c(cnn3C3CCCC3)c2)cc1", "note": "[Example 171, (S)-3-[4-(1-cyclopentyl-7-methyl-1H-indazol-5-ylmethoxy)-phenyl]-hex-4-ynoic acid]", "EC50": "1 to 50"}
